# Laboratory results as given in article PMC11750938, “Self-sufficient biocatalytic cascade for the continuous synthesis of danshensu in flow” (Applied Microbiology and Biotechnology, 2025).
# Target: T1, MpHPPR (hydroxyphenylpyruvate reductase from Mentha x piperita) (Mentha x piperita, UniProt A0A2R4SEK0)
# T1 construct: codon-optimised synthetic gene in pET15b, N-terminal His-tag, expressed in E. coli BL21(DE3) Star, Ni-NTA purified, dimer
# T1 sequence (A0A2R4SEK0 1-313): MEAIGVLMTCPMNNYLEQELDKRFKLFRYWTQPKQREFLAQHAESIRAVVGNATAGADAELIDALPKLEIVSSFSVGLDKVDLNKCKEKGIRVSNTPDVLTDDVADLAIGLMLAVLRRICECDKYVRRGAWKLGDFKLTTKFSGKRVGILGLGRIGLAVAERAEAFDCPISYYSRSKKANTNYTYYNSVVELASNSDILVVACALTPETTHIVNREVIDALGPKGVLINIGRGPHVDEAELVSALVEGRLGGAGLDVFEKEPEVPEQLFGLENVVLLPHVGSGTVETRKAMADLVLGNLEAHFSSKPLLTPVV
# Test: HPLC product quantification
# Assay type: biochemical
# Conditions: pH 7.0, 100 mM potassium phosphate, 37 °C, 10 mM NAD(P)H, 5 mM ß-mercaptoethanol
row,Structure (SMILES),KM
1,"O=C(O)C(=O)Cc1ccccc1 [PPA, phenylpyruvic acid]",Specific activity and KM for phenylpyruvic acid (PPA)
2,"O=C(O)C(=O)Cc1ccc(O)cc1 [HPPA, 3-(4-Hydroxyphenyl)−2-oxopropanoic acid]","Specific activity and KM for phenylpyruvic acid (PPA), 4-hydroxyphenylpyruvic acid (HPPA)"
